According to a melting point compilation (Tetko et al.; mined from patent text by program, amines drawn as free bases though some values may be those of a salt):

| melting point [°C] | SMILES |
| --- | --- |
| 88 to 91 | OC(CCn1ccnc1)(c1ccccc1)c1ccc2sc3ccccc3c2c1 (configuration not stated) |
| 118 to 120 | CC(C)(COC(=O)CCC(=O)O)Oc1ccc2c(c1)CCc1c-2ccc2c1CCC2(C)C |
| 195 to 197 | CCOC(=O)c1cc(C(=O)OCC)c(=O)[nH]c1C |
| 235 to 236 | O=C1C(=C2C=C(c3ccccc3)S(=O)(=O)C(c3ccccc3)=C2)C(=O)c2ccccc21 |
| 288 to 289 | Cn1c(-c2cc(C(C)(C)C)c(O)c(C(C)(C)C)c2)cnc1S |
| 159 to 160 | COC(=O)C(=NO)C(=O)N1CCC(c2ccc(OC)c(OC3CCCC3)c2)CC1 |
| 234 to 235 | CCC[C@H]1CC[C@H](c2ncc(C(N)=O)cn2)CC1 |
| 128 to 131 | COC(=O)c1nc(Cl)c(F)c(N)c1Cl |
| 148 to 152 | Fc1ccc2nc(Cl)c(Cl)nc2c1 |
| 35.1 | C=CCNC(=O)CCCC(=O)O |
| 198 to 202 | CNC(=O)c1cc(C(=O)NOCC2CC2)c(Nc2ccc(I)cc2C)c(F)c1F |
| 141 to 152 | c1nc(Nc2ccc3[nH]ccc3c2)c2sc(-c3ccc(CN4CCOCC4)cc3)cc2n1 |
| 278 to 280 | c1ccc2c(NC3CCC(Nc4nccc5ccccc45)CC3)nccc2c1 (configuration not stated) |
| 162 to 164 | C#CCOc1c(OC)cc(/C=C/C(=O)/C=C/c2cc(OC)c(OCC#C)c(OC)c2)cc1OC |
| 202 | CCOCCN(CCOCC)C(=O)c1n[nH]c2c(=O)[nH]c3cc(Cl)ccc3c(=O)c12 |
| 172 to 173 | O=C1c2cccc3cccc(c23)C(=O)N1CCO |
| 156 to 158 | CC(C)(C)OC(=O)N1CCc2c(n(CCO)c3c(Cl)ccc(Cl)c23)CC1 |
| 42 to 43 | c1ccc(OCC2CCNCC2)cc1 |
| 85 | O=[N+]([O-])c1cc(Cl)c(Oc2cc(Cl)c(Br)cc2Cl)cc1Oc1ccccc1 |
| 160 to 165 | C[C@@H]1CN(CCCn2c3ccc(O)cc3c3c4c(c(-c5c(Cl)cccc5Cl)cc32)C(=O)NC4=O)C[C@H](C)N1 |
| 65 to 68 | COC(=O)CSCNC(=O)c1ccccc1 |
| 162 to 165 | Cc1cc(NCCNC(=O)CCc2cc(C(C)(C)C)c(O)c(C(C)(C)C)c2)nc(Cl)c1C#N |
| 198 | N#CCN1CCC(=C2c3cc(F)ccc3CCn3ccnc32)CC1 |
| 195 to 197 | O=C1CCCN1c1nc(-n2ccnc2)c(I)c(C(F)(F)F)n1 |

| melting point [°C] | SMILES |
| --- | --- |
| 92 to 95 | CC(C)N1C(=O)NC(c2ccc3c(c2)OCCO3)c2cc3c(cc21)OCCO3 (configuration not stated) |
| 192 to 193 | CN(C(=O)OC(C)(C)C)c1cc(Oc2ccc(-c3nnn(C(c4ccccc4)(c4ccccc4)c4ccccc4)n3)cc2)ccc1N |
| 190 to 191 | Cc1ccc(-c2ccc(S(C)(=O)=O)cc2)n1-c1ccc(-c2nccs2)cc1 |
| 136 | CCN(CC)CCCN1C(=O)NC(Cc2c[nH]c3ccc(OC)cc23)C1=O (configuration not stated) |
| 204 to 207 | Cc1ccc(-c2cccc(/C=C/C(=O)Nc3ccc(CN4CCN(Cc5ccc6c(c5)OCO6)CC4)cc3)c2)cc1 |
| 79 to 80 | COCc1ccc(O)cc1 |
| 212 to 214 | CC(=O)Nc1nc(CCc2ccc(NC(=N)N)cc2)c(Cc2cccc(S(C)(=O)=O)c2)s1 |
| 133 | COCCOc1ccc(CCNC(=O)C=Cc2ccccc2)cc1S(N)(=O)=O |
| 85 to 86 | COC(=O)c1cc(COC(C)=O)cc(-n2cccc2C#N)c1 |
| 228 to 230 | CCCCc1nc2c(N)nc3cc(-c4cccnc4)ccc3c2n1CCNC(=O)C(C)C |
| 210 | CCOc1cc(C)ccc1C1CCN(CCCCNC(=O)c2ccc(C=Cc3ccc(C(F)(F)F)cc3)cc2)CC1 |
| 280 to 284 | CC(=O)Nc1cc2c3c(cccc3c1N1CCCC1)C(=O)N(O)C2=O |
| 230 to 232 | CC(=O)NCC(C)(C)c1ccc2nc(-c3ccc(C)cc3)[nH]c2c1 |
| 139 to 140 | O=C(NC1CCN(CCOC(=O)c2ccccc2)CC1)c1ccccc1 |
| 116 to 118 | CCOC(=O)c1cc2oc3c(n2n1)CCOC3 |
| 262 to 264 | O=C1NC(=O)c2c1c(-c1ccccc1)cc1[nH]c3ccccc3c21 |
| 78.5 to 80 | CCC1SC(NC)=NN1C(=O)C(C)(C)C (configuration not stated) |
| 100 to 115 | CC(C)S(=O)(=O)N1C[C@@H](c2c[nH]c3ccccc23)[C@H](c2cn3c4c(cccc24)CCC3)C1 |
| 115 | CCCCC(=O)NC(C(=O)OCC)=C(N)Sc1ccccc1 |
| 58 to 60 | CCOC(=O)C1CCc2cc(OC)ccc2C1=O (configuration not stated) |
| 150 to 152 | CCOC(=O)c1cc(=O)c2cc(OCC(O)COc3ccc(C#N)cc3)ccc2o1 (configuration not stated) |
| 69 to 70.5 | CC1CCOC(CBr)(c2ccc(Cl)cc2Cl)O1 (configuration not stated) |
| 49 to 53 | COC(=O)C1=C(C)NC(C)=C(C(=O)OCC(O)CO)C1c1cccc([N+](=O)[O-])c1 (configuration not stated) |
| 196 to 201 | O=C(O)CN1C(=O)C(=C2CCCCC2)SC1=S |

| melting point [°C] | SMILES |
| --- | --- |
| 110 to 112 | N#Cc1cccnc1N1CCN(CC(=O)Nc2ccccc2)CC1 |
| 361 to 363 | NC(=O)c1nc(-c2cccc(O)c2)nc2c1[nH]c(=O)n2C1CCOCC1 |
| 96 to 98 | CCCCCCN(CCCCCC)C(Nc1ccc(OC)cc1OC)=C1C(=O)COC1=O |
| 125 to 127 | COc1ccc([C@@H]2CC(=O)N3C(=O)CC[C@H]23)cc1 (relative stereo) |
| 48 to 49 | CCCCCCCCC=CCCCCCCCCCCCC(=O)NC |
| 102 to 104 | COc1ccc(CN(CCN(C)CCNC(=C[N+](=O)[O-])NCCCOc2cccc(CN3CCCCC3)c2)c2ccccn2)cc1 |
| 65 to 67.5 | Cc1ccc(S(=O)(=O)OC2CCC3(CC2)OCCO3)cc1 |
| 215 to 217 | CCn1cc(C(=O)O)c(=O)cc1-c1ccc(OC)cc1 |
| 128 | OCCON=Cc1ccc2ccccc2n1 |
| 220 to 223 | CC(=O)N1CCc2cc(S(=O)(=O)n3c(CCC(=O)O)cc4cc(Cl)ccc43)ccc21 |
| 134 to 135 | COC(=O)C1CSC(c2ccc(Oc3ccc(C)cc3O)cc2)N1 (configuration not stated) |
| 138 to 140 | CCOC(=O)c1cc(=O)c2cc3c(c(CC4CO4)c2o1)CCCC3 (configuration not stated) |
| 96 to 98 | COc1ccccc1OCCCCCOc1ccc(C(=N)N)cc1 |
| 249 to 250 | Cc1cc(-c2nc3sc4ccccc4n3c2CC(=O)O)c(C)s1 |
| 116 | CCCCN(CCCC)CCOc1ccc(C(=O)c2c(CC)cc3ccccn23)cc1 |
| 96 to 98 | N#Cc1cncc(C=O)c1 |
| 147 to 155 | CC#Cc1ccc(NC(=O)c2ccccc2NCc2ccncc2)cc1 |
| 121 | O=S(=O)(c1ccc(F)cc1)N1CCCC1c1ccc(F)cc1 (racemic) |
| 133 | COc1cccc(C(=O)N2CCCC3=C2CCc2cc(Cl)ccc23)c1 |
| 130 to 131 | CN1C[C@H]2c3ccccc3CC[C@H]2CCC1=O (relative stereo) |
| 109 to 110 | CN(C)c1cc(-n2nc(N(C)C)n(C)c2=O)c(F)cc1C#N |
| 63.2 to 64.8 | CC(C)C(C#N)Nc1ccc(C(F)(F)F)cc1Cl (configuration not stated) |
| 166 to 167 | O=S1(=O)NC(C2CCCCC2)Nc2c(Br)cc(Br)cc21 (configuration not stated) |
| 99 | CC1C(=O)N(C2CCCC2)C(=S)N1c1ccc(Oc2ccccc2)cc1 (configuration not stated) |

| melting point [°C] | SMILES |
| --- | --- |
| 116 to 118 | O=C(C=Cc1ccccc1)c1ccc(OCc2ccccc2)cc1O |
| 153 to 154 | COCCOc1ccccc1-c1cc(Nc2cccc(S(C)(=O)=O)c2)ncn1 |
| > 300 | O=C(O)c1cn2c3c(c(F)c(F)cc3c1=O)OCC2 |
| 198 to 200 | CCc1nc2c(N)nc3ccccc3c2n1CCCCNS(C)(=O)=O |
| 225 to 228 | CC1(C)CCc2[nH]cc(C(=O)O)c2C1=O |
| 179 to 180 | Cc1nnc(-c2ccc3occ(-c4ccc5c(c4)C(C)(C)CS5=O)c3c2)o1 (configuration not stated) |
| > 300 | O=c1c2cn[nH]c2nc2n1CCS2 |
| 76 | CCCOCCOC(=O)C1=C(C)NN=C(CC)C1c1cccc([N+](=O)[O-])c1 (configuration not stated) |
| 154 to 160 | O=C(Nc1ccc(C(=O)N2CCCCc3sccc32)cc1)c1ccc(Cl)c(Cl)c1 |
| 150 | CC(C(=O)O)c1ccc(C(=O)c2ccc3ccccc3c2)cc1 (configuration not stated) |
| 93 to 95 | CC(C)c1nn(-c2ccc(Cl)cn2)cc1CCCO |
| > 300 | CNC(=O)c1cccc(Nc2ncnc3[nH]cc(C(=O)c4cccc5ccccc45)c23)c1 |
| 95 | CCC(C)CNC(=O)c1ccc2c(c1)N(C(C)CN(C)CC)c1ccccc1S2 (mixture of isomers) |
| > 300 | CC(CO)c1ccc2oc3nc(N)c(C(=O)O)cc3c(=O)c2c1 (configuration not stated) |
| 88 to 91 | CCC(=O)c1ccc(C(O)C(C)(C)C)cc1 (configuration not stated) |
| > 250 | Nc1nc(N)nc(-c2cnc3ccccc3c2)n1 |
| 82 to 84 | COc1ccc2cc([C@H](C)C(=O)OCCNC(=O)OC(C)(C)C)ccc2c1 |
| 152 to 153 | COc1ccc(-c2c(C(=O)CC(C)C)c(CSc3nccn3C)nc3cc(OC)c(OC)cc23)cc1OC |
| 179 to 180 | O=C(Nc1cccnc1)N1CCN(c2cc(-c3cccc(F)c3F)ncn2)CC1 |
| 267 to 270 | CCOC(=O)c1c[nH]c2c(F)c(C(C)=O)c(F)cc2c1=O |
| 56 to 58 | COC1OC(CO)C(O)C(OC)C1O (configuration not stated) |
| 118 to 120 | CS(=O)(=O)c1ccc(-c2oc(CC(=O)O)nc2-c2ccc(F)cc2)cc1 |
| 159 to 160 | CC(=O)c1cc(O)c(O)c([N+](=O)[O-])c1 |
| 169 to 171 | Cc1nc(C(O)(c2nc(C)c(C)s2)C(C)C)sc1C |

| SMILES | melting point [°C] |
| --- | --- |
| CC(C)(C)C(=O)CN1CCNC1=N[N+](=O)[O-] | 158 to 159 |
| Cc1nnc2n1-c1sc(CCc3ccccc3)cc1C(c1ccccc1Cl)=NC2 | 106 to 108 |
| C[C@H]1[C@@H](CO)CCN1c1ccc(C#N)c2ccccc12 | 158 to 159 |
| CCN(C(C)=O)c1cccc(-c2ccc3nnc(C)n3n2)c1 | 180 to 185 |
| O=C(Nc1cnc2ccccc2c1)OC1CN2CCC1CC2 (configuration not stated) | 135 to 137 |
| COc1ccc(CCNCC(O)c2ccccc2)cc1OC (configuration not stated) | 92 to 93 |
